Laboratory results published in patent publication US20220056040A1, “NOVEL 3-(2-BROMO-4-ALKYNYL-6-ALKOXYPHENYL)-3-PYRROLIN-2-ONES AND THEIR USE AS HERBICIDES” (Bayer Aktiengesellschaft, priority 2019, published 2022).

What was measured:
Type in all cases: in vivo
Alopecurus myosuroides [1] = assay: Pre-emergence herbicidal effect; settings: 80 g/ha, visual score after 3 weeks vs untreated controls
Text: (§1) Seeds of monocotyledonous and dicotyledonous weed plants and crop plants are laid out in sandy loam soil in wood-fiber pots and covered with soil. The compounds of the invention, formulated in the form of wettable powders (WP) or as emulsion concentrates (EC), are then applied to the surface of the covering soil as aqueous suspension or emulsion at a water application rate equating to 600 to 800 L/ha with addition of 0.2% wetting agent. After the treatment, the pots are placed in a greenhouse and kept under good growth conditions for the trial plants. The damage to the test plants is scored visually after a test period of 3 weeks by comparison with untreated controls (herbicidal activity in percent (%): 100% activity=the plants have died, 0% activity=like control plants).

Avena fatua = assay: Pre-emergence herbicidal effect; settings: 80 g/ha, visual score after 3 weeks vs untreated controls
Text: as §1

Digitaria sanguinalis [2] = assay: Pre-emergence herbicidal effect; settings: 80 g/ha, visual score after 3 weeks vs untreated controls
Text: as §1

Echinochloa crus-galli [3] = assay: Pre-emergence herbicidal effect; settings: 80 g/ha, visual score after 3 weeks vs untreated controls
Text: as §1

Lolium rigidum [4] = assay: Pre-emergence herbicidal effect; settings: 80 g/ha, visual score after 3 weeks vs untreated controls
Text: as §1

Setaria viridis [5] = assay: Pre-emergence herbicidal effect; settings: 80 g/ha, visual score after 3 weeks vs untreated controls
Text: as §1

Alopecurus myosuroides [6] = assay: Post-emergence herbicidal effect; settings: 80 g/ha, post-emergence at one-leaf stage, visual score after about 3 weeks
Experimental: (§2) Seeds of monocotyledonous and dicotyledonous weed and crop plants are laid out in sandyloam soil in wood-fiber pots, covered with soil and cultivated in a greenhouse under good growth conditions. 2 to 3 weeks after sowing, the test plants are treated at the one-leaf stage. The compounds of the invention, formulated in the form of wettable powders (WP) or as emulsion concentrates (EC), are then sprayed onto the green parts of the plants as aqueous suspension or emulsion at a water application rate equating to 600 to 800 l/ha with addition of 0.2% wetting agent. After the test plants have been left to stand in the greenhouse under optimal growth conditions for about 3 weeks, the action of the preparations is assessed visually in comparison to untreated controls (herbicidal action in percent (%): 100% activity=the plants have died, 0% activity=like control plants).

Digitaria sanguinalis [7] = assay: Post-emergence herbicidal effect; settings: 80 g/ha, post-emergence at one-leaf stage, visual score after about 3 weeks
Experimental: as §2

Echinochloa crus-galli [8] = assay: Post-emergence herbicidal effect; settings: 80 g/ha, post-emergence at one-leaf stage, visual score after about 3 weeks
Experimental: as §2

Hordeum murinum = assay: Post-emergence herbicidal effect; settings: 80 g/ha, post-emergence at one-leaf stage, visual score after about 3 weeks
Experimental: as §2

Lolium rigidum [9] = assay: Post-emergence herbicidal effect; settings: 80 g/ha, post-emergence at one-leaf stage, visual score after about 3 weeks
Experimental: as §2

Setaria viridis [10] = assay: Post-emergence herbicidal effect; settings: 80 g/ha, post-emergence at one-leaf stage, visual score after about 3 weeks
Experimental: as §2

SMILES	Pre-emergence action ALOMY (herbicidal activity in percent) (Alopecurus myosuroides [1]) [%]	Pre-emergence action AVEFA (herbicidal activity in percent) (Avena fatua) [%]	Pre-emergence action DIGSA (herbicidal activity in percent) (Digitaria sanguinalis [2]) [%]	Pre-emergence action ECHCG (herbicidal activity in percent) (Echinochloa crus-galli [3]) [%]	Pre-emergence action LOLRI (herbicidal activity in percent) (Lolium rigidum [4]) [%]	Pre-emergence action SETVI (herbicidal activity in percent) (Setaria viridis [5]) [%]	Post-emergence action against ALOMY (herbicidal action in percent) (Alopecurus myosuroides [6]) [%]	Post-emergence action against DIGSA (herbicidal action in percent) (Digitaria sanguinalis [7]) [%]	Post-emergence action against ECHCG (herbicidal action in percent) (Echinochloa crus-galli [8]) [%]	Post-emergence action against HORMU (herbicidal action in percent) (Hordeum murinum) [%]	Post-emergence action against LOLRI (herbicidal action in percent) (Lolium rigidum [9]) [%]	Post-emergence action against SETVI (herbicidal action in percent) (Setaria viridis [10]) [%]
CC#Cc1cc(Br)c(C2=C(O)C3(CCOCC3)NC2=O)c(OC)c1 [Example 1.1.01, 3-[2-Bromo-6-methoxy-4-(prop-1-yn-1-yl)phenyl]-4-hydroxy-8-oxa-1-azaspiro[4.5]dec-3-en-2-one]	90	100	100	100	100	100	100	100	100	100	100	100
CC#Cc1cc(Br)c(C2=C(OC(=O)OC)C3(CCOCC3)NC2=O)c(OC)c1 [Example 1.1.02, 3-[2-Bromo-6-methoxy-4-(prop-1-yn-1-yl)phenyl]-2-oxo-8-oxa-1-azaspiro[4.5]dec-3-en-4-yl methyl carbonate]	90	80	100	80	100	100	100	100	100	–	100	100
CC#Cc1cc(Br)c(C2=C(OC(=O)OCC)C3(CCOCC3)NC2=O)c(OC)c1 [Example 1.1.03]	–	–	–	–	–	–	80	100	100	–	100	100
CC#Cc1cc(Br)c(C2=C(OC(=O)C(C)C)C3(CCOCC3)NC2=O)c(OC)c1 [Example 1.1.04]	–	–	–	–	–	–	–	100	–	–	–	–
CC#Cc1cc(Br)c(C2=C(OC(=O)OCC)C3(CCC4(CC3)OCCO4)NC2=O)c(OC)c1 [Example 1.2.01]	90	100	100	100	100	100	100	–	100	100	100	100
CC#Cc1cc(Br)c(C2=C(O)C3(CCC4(CC3)OCCO4)NC2=O)c(OC)c1 [Example 1.2.03]	100	100	100	100	100	100	90	100	100	100	100	100
C=CCOC1CCC2(CC1)NC(=O)C(c1c(Br)cc(C#CC)cc1OC)=C2OC(=O)OC (centres unmarked) [Example 1.3.02]	100	90	100	100	100	100	100	100	90	–	80	100
C=CCOC1CCC2(CC1)NC(=O)C(c1c(Br)cc(C#CC)cc1OC)=C2OC(=O)OCC (centres unmarked) [Example 1.3.03]	100	90	100	100	100	100	100	100	100	–	100	100
CC#Cc1cc(Br)c(C2=C(O)C3(CCC(OCCOC)CC3)NC2=O)c(OC)c1 (centres unmarked) [Example 1.3.05]	100	90	100	100	100	100	–	–	–	–	–	–
CC#Cc1cc(Br)c(C2=C(OC(=O)OC)C3(CCC(OCCOC)CC3)NC2=O)c(OC)c1 (centres unmarked) [Example 1.3.06]	100	100	100	100	100	100	–	–	–	–	–	–
CC#Cc1cc(Br)c(C2=C(OC(=O)OCC)C3(CCC(OCCOC)CC3)NC2=O)c(OC)c1 (centres unmarked) [Example 1.3.07]	100	100	100	100	100	100	–	–	–	–	–	–
CC#Cc1cc(Br)c(C2=C(OC(C)=O)C3(CCC(OCCOC)CC3)NC2=O)c(OC)c1 (centres unmarked) [Example 1.3.08]	100	90	100	100	100	100	–	–	–	–	–	–
CC#Cc1cc(Br)c(C2=C(O)C3(CCC(OC(C)C)CC3)NC2=O)c(OC)c1 (centres unmarked) [Example 1.3.09]	100	100	100	90	100	100	–	–	–	–	–	–
CC#Cc1cc(Br)c(C2=C(OC(=O)OC)C3(CCC(OC(C)C)CC3)NC2=O)c(OC)c1 (centres unmarked) [Example 1.3.11]	100	90	100	100	100	100	–	–	–	–	–	–
CC#Cc1cc(Br)c(C2=C(OC(=O)OCC)C3(CCC(OC(C)C)CC3)NC2=O)c(OC)c1 (centres unmarked) [Example 1.3.12]	100	80	100	100	100	100	–	–	–	–	–	–
